Reference: patent US20260158017A1, “KIF18A INHIBITOR” (WIGEN BIOMEDICINE TECHNOLOGY (SHANGHAI) CO., LTD., priority 2021, published 2026)

Biological target: T1, Recombinant human KIF18A (1-467His-tagged) protein (Homo sapiens, UniProt Q8NI77)
T1 construct: Recombinant human KIF18A (1-467His-tagged) protein; His; made in house
Test: KIF18A enzyme assay (microtubule-stimulated ATPase activity, ADP-Glo)
Format: biochemical
Settings: 30 nM KIF18A, 75 μM ATP, 30 μg/mL pig microtubules; read-out: Inhibitory activity against KIF18A IC50
Procedure: In Vitro Assay of the Compounds of the Present Invention for Inhibiting Enzymatic Activity of KIF18A
KIF18A enzyme assay: The enzymatic activity of KIF18A after treatment with the compounds was measured by an assay of microtubule-stimulated ATPase activity. ADP generated from the ATPase reaction was measured in this assay. The compounds were serially diluted 2-fold in DMSO over a range of 22 concentration points. […] Concentrations of KIF18A protein, microtubules, and ATP in the reaction were optimized for a standardized homogenous enzyme assay using an ADP-Glo kinase/ATPase assay kit. A reaction buffer [(15 mM Tris, pH 7.5), 10 mM MgCl2, 0.01% PluronicF-68, 1 μM paclitaxel, and 30 μg/mL pig microtubules] was prepared. […] The resulting reaction mixture was incubated at room temperature for another 15 min. 5 μL of ADP-Glo reagent and 2.5 μL of the reaction mixture were mixed and the resulting mixture was incubated at room temperature for 40 min. 10 μL of ADP-Glo detection reagent was added and the mixture was incubated at room temperature for 40 min. Luminescence was read using a microplate reader and compared with that of the DMSO group, and then the inhibition percentages and IC50 values of the compounds were calculated.

T1 sequence (Q8NI77 1-467): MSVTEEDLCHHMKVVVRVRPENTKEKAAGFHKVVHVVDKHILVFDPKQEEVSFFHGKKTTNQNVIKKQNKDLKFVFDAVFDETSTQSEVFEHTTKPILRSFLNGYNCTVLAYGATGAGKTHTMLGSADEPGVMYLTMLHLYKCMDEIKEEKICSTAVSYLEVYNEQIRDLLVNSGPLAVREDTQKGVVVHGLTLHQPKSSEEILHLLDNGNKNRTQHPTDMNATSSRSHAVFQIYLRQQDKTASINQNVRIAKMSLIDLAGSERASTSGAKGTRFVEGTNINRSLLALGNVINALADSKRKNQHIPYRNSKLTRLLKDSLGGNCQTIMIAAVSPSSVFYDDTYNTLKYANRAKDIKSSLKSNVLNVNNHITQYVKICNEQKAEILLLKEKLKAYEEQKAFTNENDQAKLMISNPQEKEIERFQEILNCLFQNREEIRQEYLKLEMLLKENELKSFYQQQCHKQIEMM
T1 sequence (P02550 whole entry partner): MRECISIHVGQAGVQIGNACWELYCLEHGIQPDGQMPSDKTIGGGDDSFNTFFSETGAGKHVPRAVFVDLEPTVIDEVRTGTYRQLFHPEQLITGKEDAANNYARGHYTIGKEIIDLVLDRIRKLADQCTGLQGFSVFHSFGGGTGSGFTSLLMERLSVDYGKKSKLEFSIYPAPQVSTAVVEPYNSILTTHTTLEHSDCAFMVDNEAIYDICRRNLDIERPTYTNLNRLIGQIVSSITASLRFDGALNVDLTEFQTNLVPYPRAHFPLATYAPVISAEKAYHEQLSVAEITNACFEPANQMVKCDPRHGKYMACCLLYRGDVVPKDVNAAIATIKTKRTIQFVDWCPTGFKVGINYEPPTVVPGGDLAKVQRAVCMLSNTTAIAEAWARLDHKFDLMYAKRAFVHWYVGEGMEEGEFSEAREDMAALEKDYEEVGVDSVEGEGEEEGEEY
T1 sequence (P02554 whole entry partner): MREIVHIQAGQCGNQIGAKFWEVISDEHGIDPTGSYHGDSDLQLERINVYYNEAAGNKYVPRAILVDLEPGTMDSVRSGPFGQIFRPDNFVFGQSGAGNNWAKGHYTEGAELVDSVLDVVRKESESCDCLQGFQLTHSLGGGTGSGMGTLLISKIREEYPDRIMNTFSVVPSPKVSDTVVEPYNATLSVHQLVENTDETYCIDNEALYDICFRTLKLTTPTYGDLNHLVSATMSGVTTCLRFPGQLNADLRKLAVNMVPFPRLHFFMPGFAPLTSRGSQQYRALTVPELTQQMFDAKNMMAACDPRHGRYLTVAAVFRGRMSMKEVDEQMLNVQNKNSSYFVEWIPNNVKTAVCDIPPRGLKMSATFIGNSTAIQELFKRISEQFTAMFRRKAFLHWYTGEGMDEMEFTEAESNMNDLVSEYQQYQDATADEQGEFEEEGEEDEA

SMILES | IC50
COc1ccc(NC(=O)c2cnc(NS(=O)(=O)CCO)cc2N2CCC3(CC2)CC3)nc1N1CC(F)(F)C1 [Compound 292] | ≤ 100 nM
O=C(Nc1ccc(S(=O)(=O)NCCO)cc1N1CCC2(CC1)CC2)c1ccc(OCF)c(N2CC3CC3C2)n1 (stereo not shown) [Compound 570] | 100 to 500 nM
O=C(Nc1ccc([N+](=O)[O-])c(N2CCC(F)CC2)n1)c1cnc(NS(=O)(=O)CCO)cc1N1CCC2(CC1)CC2 [Compound 137] | ≤ 100 nM
O=C(Nc1ccc([N+](=O)[O-])c(OCCC(F)(F)F)n1)c1ccc(S(=O)(=O)NCCO)cc1N1CCC2(CC1)CC2 [Compound 85] | ≤ 100 nM
CC(C)(CO)Nc1cc(NC(=O)c2cnc(S(=O)(=O)NCCO)cc2N2CCC3(CC2)CC3)ccc1[N+](=O)[O-] [Compound 123] | ≤ 100 nM
CC1(F)CCN(c2cc(NC(=O)c3ccc(NS(=O)(=O)CCO)cc3N3CCC4(CC3)CC4)ccc2[N+](=O)[O-])C1 (stereo not shown) [Compound 8] | ≤ 100 nM
C[C@@H](CO)NS(=O)(=O)c1cc(N2CCC3(CC2)CC3)c(C(=O)Nc2ccc(OCF)c(N3CCC(F)(F)CC3)n2)cn1 [Compound 509] | ≤ 100 nM
O=C(Nc1ccc([N+](=O)[O-])c(N2CC3CC3C2)n1)c1cnc(S(=O)(=O)NCCO)cc1N1CCC2(CC1)CC2 (stereo not shown) [Compound 154] | ≤ 100 nM
COc1ccc(C(=O)Nc2ccc(S(=O)(=O)NCCO)cc2N2CCC3(CC2)CC3)nc1OCCC(F)(F)F [Compound 341] | ≤ 100 nM
O=C(Nc1ccc(NS(=O)(=O)CCO)cc1N1CCC2(CC1)CC2)c1ccc([N+](=O)[O-])c(OCCC(F)(F)F)c1 [Compound 37] | ≤ 100 nM
C[C@@H]1CN(c2cc(C(=O)Nc3cnc(NS(=O)(=O)CCO)cc3N3CCC4(CC3)CC4)ccc2[N+](=O)[O-])CCO1 [Compound 194] | ≤ 100 nM
C[C@@H](CO)S(=O)(=O)Nc1cc(N2CCC3(CC2)CC3)c(NC(=O)c2ccc([N+](=O)[O-])c(N3CCC(F)(F)CC3)n2)cn1 [Compound 237] | ≤ 100 nM
O=C(Nc1ccc(OCF)c(N2CCC(F)CC2)n1)c1ccc(S(=O)(=O)NCCO)cc1N1CCC2(CC1)CC2 [Compound 441] | ≤ 100 nM
COc1ccc(C(=O)Nc2cnc(NS(=O)(=O)CCO)cc2N2CCC3(CC2)CC3)nc1OC1CCC1 [Compound 359] | ≤ 100 nM
O=C(Nc1ccc([N+](=O)[O-])c(N2CCC3(CC3)C2)c1)c1cnc(S(=O)(=O)NCCO)cc1N1CCC2(CC1)CC2 [Compound 118] | ≤ 100 nM
CSc1ccc(NC(=O)c2ccc(NS(=O)(=O)[C@@H](C)CO)cc2N2CCC3(CC2)CC3)nc1N1CCO[C@H](C)C1 [Compound 607] | ≤ 100 nM
CC1(F)CCN(c2cc(NC(=O)c3ccc(S(=O)(=O)NCCO)cc3N3CCC4(CC3)CC4)ccc2[N+](=O)[O-])C1 (stereo not shown) [Compound 24] | ≤ 100 nM
C[C@@H]1CN(c2cc(NC(=O)c3cnc(S(=O)(=O)NCCO)cc3N3CCC4(CC3)CC4)ccc2OCF)CCO1 [Compound 466] | ≤ 100 nM
CSc1ccc(NC(=O)c2cnc(NS(=O)(=O)CCO)cc2N2CCC3(CC2)CC3)nc1N1CC2CC2C1 (stereo not shown) [Compound 634] | ≤ 100 nM
O=C(Nc1ccc(OCF)c(N2CCOCC2)c1)c1cnc(S(=O)(=O)NCCO)cc1N1CCC2(CC1)CC2 [Compound 476] | ≤ 100 nM

SMILES | IC50
O=C(Nc1ccc(OCF)c(OCCC(F)(F)F)n1)c1ccc(NS(=O)(=O)CCO)cc1N1CCC2(CC1)CC2 [Compound 421] | ≤ 100 nM
CSc1ccc(NC(=O)c2cnc(NS(=O)(=O)CCO)cc2N2CCC3(CC2)CC3)nc1N1CCOCC1 [Compound 636] | ≤ 100 nM
C[C@@H]1CN(c2nc(C(=O)Nc3cnc(NS(=O)(=O)CCO)cc3N3CCC4(CC3)CC4)ccc2[N+](=O)[O-])CCO1 [Compound 226] | ≤ 100 nM
C[C@H](CO)S(=O)(=O)Nc1ccc(NC(=O)c2ccc([N+](=O)[O-])c(N3CCC(F)(F)CC3)n2)c(N2CCC3(CC2)CC3)c1 [Compound 174] | ≤ 100 nM
CSc1ccc(NC(=O)c2ccc(NS(=O)(=O)CCO)cc2N2CCC3(CC2)CC3)cc1N1CCC(F)CC1 [Compound 585] | ≤ 100 nM
CC1(F)CCN(c2nc(NC(=O)c3ccc(NS(=O)(=O)CCO)cc3N3CCC4(CC3)CC4)ccc2[N+](=O)[O-])C1 (stereo not shown) [Compound 72] | ≤ 100 nM
C[C@@H]1CN(c2cc(C(=O)Nc3cnc(NS(=O)(=O)[C@@H](C)CO)cc3N3CCC4(CC3)CC4)ccc2[N+](=O)[O-])CCO1 [Compound 207] | ≤ 100 nM
O=C(Nc1ccc(S(=O)(=O)NCCO)cc1N1CCC2(CC1)CC2)c1ccc([N+](=O)[O-])c(OC2CCC2)n1 [Compound 183] | 100 to 500 nM
CSc1ccc(NC(=O)c2cnc(NS(=O)(=O)CCO)cc2N2CCC3(CC2)CC3)nc1N1CCC(F)CC1 [Compound 633] | ≤ 100 nM
CC(C)(CO)Nc1nc(C(=O)Nc2ccc(S(=O)(=O)NCCO)cc2N2CCC3(CC2)CC3)ccc1OCF [Compound 571] | 100 to 500 nM
CC1(F)CCN(c2cc(C(=O)Nc3ccc(NS(=O)(=O)CCO)cc3N3CCC4(CC3)CC4)ccc2OCF)C1 (stereo not shown) [Compound 520] | ≤ 100 nM
COc1ccc(NC(=O)c2cnc(S(=O)(=O)NCCO)cc2N2CCC3(CC2)CC3)nc1N1CCO[C@@H](C)C1 [Compound 307] | ≤ 100 nM
CC(C)(CO)Nc1nc(NC(=O)c2cnc(NS(=O)(=O)CCO)cc2N2CCC3(CC2)CC3)ccc1[N+](=O)[O-] [Compound 139] | ≤ 100 nM
O=C(Nc1ccc([N+](=O)[O-])c(N2CC3CC3C2)n1)c1ccc(S(=O)(=O)NCCO)cc1N1CCC2(CC1)CC2 (stereo not shown) [Compound 90] | ≤ 100 nM
O=C(Nc1ccc([N+](=O)[O-])c(N2CC(F)(F)C2)c1)c1ccc(S(=O)(=O)NCCO)cc1N1CCC2(CC1)CC2 [Compound 20] | ≤ 100 nM
C[C@@H]1CN(c2cc(C(=O)Nc3ccc(S(=O)(=O)NCCO)cc3N3CCC4(CC3)CC4)ccc2OCF)CCO1 [Compound 530] | 100 to 500 nM
O=C(Nc1cnc(S(=O)(=O)NCCO)cc1N1CCC2(CC1)CC2)c1ccc([N+](=O)[O-])c(N2CC3CC3C2)c1 (stereo not shown) [Compound 218] | 100 to 500 nM
O=C(Nc1ccc([N+](=O)[O-])c(N2CC(F)(F)C2)c1)c1cnc(S(=O)(=O)NCCO)cc1N1CCC2(CC1)CC2 [Compound 116] | ≤ 100 nM
O=C(Nc1ccc(S(=O)(=O)NCCO)cc1N1CCC2(CC1)CC2)c1ccc(OCF)c(N2CCC(F)(F)CC2)c1 [Compound 529] | 100 to 500 nM
COc1ccc(C(=O)Nc2cnc(NS(=O)(=O)CCO)cc2N2CCC3(CC2)CC3)nc1N1CCC2(CC2)C1 [Compound 358] | ≤ 100 nM

SMILES | IC50
O=C(Nc1cnc(S(=O)(=O)NCCO)cc1N1CCC2(CC1)CC2)c1ccc([N+](=O)[O-])c(N2CCC3(CC3)C2)c1 [Compound 214] | 100 to 500 nM
C[C@H](CO)NS(=O)(=O)c1ccc(C(=O)Nc2ccc([N+](=O)[O-])c(N3CCO[C@H](C)C3)c2)c(N2CCC3(CC2)CC3)c1 [Compound 32] | ≤ 100 nM
O=C(Nc1ccc([N+](=O)[O-])c(N2CCC(F)CC2)c1)c1cnc(NS(=O)(=O)CCO)cc1N1CCC2(CC1)CC2 [Compound 105] | ≤ 100 nM
C[C@@H]1CN(c2nc(NC(=O)c3ccc(S(=O)(=O)N[C@@H](C)CO)cc3N3CCC4(CC3)CC4)ccc2[N+](=O)[O-])CCO1 [Compound 95] | ≤ 100 nM
C[C@@H]1CN(c2nc(NC(=O)c3ccc(S(=O)(=O)NCCO)cc3N3CCC4(CC3)CC4)ccc2[N+](=O)[O-])CCO1 [Compound 82] | ≤ 100 nM
O=C(Nc1ccc(S(=O)(=O)NCCO)cc1N1CCC2(CC1)CC2)c1ccc(OCF)c(OC2CCC2)c1 [Compound 535] | 100 to 500 nM
O=C(Nc1ccc(OCF)c(N2CCC(F)(F)CC2)c1)c1cnc(NS(=O)(=O)CCO)cc1N1CCC2(CC1)CC2 [Compound 449] | ≤ 100 nM
CSc1ccc(NC(=O)c2ccc(NS(=O)(=O)CCO)cc2N2CCC3(CC2)CC3)cc1N1CCO[C@H](C)C1 [Compound 578] | ≤ 100 nM
COc1ccc(C(=O)Nc2ccc(NS(=O)(=O)CCO)cc2N2CCC3(CC2)CC3)nc1N1CCOCC1 [Compound 332] | ≤ 100 nM
CSc1ccc(NC(=O)c2cnc(NS(=O)(=O)CCO)cc2N2CCC3(CC2)CC3)nc1N1CCO[C@@H](C)C1 [Compound 627] | ≤ 100 nM
C[C@@H](CO)NS(=O)(=O)c1ccc(C(=O)Nc2ccc(OCF)c(N3CCC(F)(F)CC3)n2)c(N2CCC3(CC2)CC3)c1 [Compound 445] | ≤ 100 nM
C[C@H]1CN(c2cc(NC(=O)c3cnc(NS(=O)(=O)CCO)cc3N3CCC4(CC3)CC4)ccc2OCF)CCO1 [Compound 451] | ≤ 100 nM
O=C(Nc1ccc([N+](=O)[O-])c(OC2CCC2)n1)c1ccc(NS(=O)(=O)CCO)cc1N1CCC2(CC1)CC2 [Compound 71] | ≤ 100 nM
O=C(Nc1ccc([N+](=O)[O-])c(N2CCC3(CC3)C2)n1)c1ccc(NS(=O)(=O)CCO)cc1N1CCC2(CC1)CC2 [Compound 70] | ≤ 100 nM
O=C(Nc1ccc(OCF)c(N2CCC(F)CC2)n1)c1ccc(NS(=O)(=O)CCO)cc1N1CCC2(CC1)CC2 [Compound 425] | ≤ 100 nM
O=C(Nc1ccc(NS(=O)(=O)CCO)cc1N1CCC2(CC1)CC2)c1ccc([N+](=O)[O-])c(N2CC(F)(F)C2)c1 [Compound 36] | ≤ 100 nM
C[C@@H]1CN(c2cc(NC(=O)c3cnc(S(=O)(=O)NCCO)cc3N3CCC4(CC3)CC4)ccc2OCF)CCO1 [Compound 402] | ≤ 100 nM
COc1ccc(C(=O)Nc2ccc(NS(=O)(=O)CCO)cc2N2CCC3(CC2)CC3)nc1OCCC(F)(F)F [Compound 325] | ≤ 100 nM
